The source of these data is patent EP4635500A1, “THERAPEUTIC AGENT FOR BACTERIAL INFECTION” (Sumitomo Pharma Co., Ltd., priority 2022, dated 2024).

Converted amounts (≈) assume the structure as drawn. Read-outs that look alike come from different tables or passages of the source. A value given as a limit tells only on which side of the number the result lay.

What all share (type): cell-based
One test has as its system P. aeruginosa. In words: MIC, broth microdilution, CDC/FDA Antibiotic Resistance Isolate Bank (Example 7, Tables 10, 15).
The subject of the next test is Klebsiella pneumoniae. In words: MIC, broth microdilution, standard strains and Japanese clinical isolates (Example 5, Table 4). In general terms: Broth dilution looks for growth in wells or tubes with falling amounts of substance.
Another test relates to Enterobacter cloacae. The test is described as above.
The next test has as its system 53 CRE and CPE strains. In words: MICrange, MIC50, MIC80, MIC90 for 53 bacterial isolates (Example 5, Table 5). Particulars: 53 bacterial isolates.
In a further test the test system is Enterobacter hormaechei. In words: MIC, broth microdilution, standard strains and Japanese clinical isolates (Example 5, Table 4). Particulars: ATCCBAA2082; KUB4001 Enterobacter hormaechei ATCC BAA-2082, KPC-2.
In another test the test system is CRE and CPE strains. In words: MIC, broth microdilution, standard strains and Japanese clinical isolates (Example 5, Table 4 continued; organism of each KUB strain not given).
The subject of another test is Providencia rettgeri. In words: MIC, broth microdilution, standard strains and Japanese clinical isolates (Example 5, Table 4). Particulars: ATCCBAA2525; KUB4010 Providencia rettgeri ATCC BAA-2525, OXA-181.
In a further test the test system is Escherichia coli. The description is as above.

What is called MIC is the lowest concentration found to suppress growth. As usually defined, the MIC50 is the lowest concentration that inhibits either 50% of growth or 50% of the strains tested, depending on the study. As usually defined, the MIC80 is the lowest concentration that inhibits either 80% of growth or 80% of the strains tested, depending on the study. Broadly, the MIC90 is the lowest concentration that inhibits either 90% of growth or 90% of the strains tested, depending on the study.

In the case of `O=C(O)c1cn(C2CC2)c2cc(N3CCNCC3)c(F)cc2c1=O` [Ciyprofloxacin], the MIC in the test on P. aeruginosa (P. aeruginosa KUB No. 5681, AR Bank # 248) is reported as 8 µg/mL (≈ 24.1 µM); against P. aeruginosa (P. aeruginosa KUB No. 5684, AR Bank # 251) it was 4 µg/mL (≈ 12.1 µM); with P. aeruginosa (P. aeruginosa KUB No. 5685, AR Bank # 252), 8 µg/mL (≈ 24.1 µM); against P. aeruginosa (P. aeruginosa KUB No. 5694, AR Bank # 261), 2 µg/mL (≈ 6.04 µM); in the test with P. aeruginosa (P. aeruginosa KUB No. 5695, AR Bank # 262), 0.5 µg/mL (≈ 1.51 µM); in the test with P. aeruginosa (P. aeruginosa KUB No. 5696, AR Bank # 263) it was 1 µg/mL (≈ 3.02 µM). Also, the MIC in the test with P. aeruginosa (P. aeruginosa KUB No. 5700, AR Bank # 267) is listed as 8 µg/mL (≈ 24.1 µM); against P. aeruginosa (P. aeruginosa KUB No. 5701, AR Bank # 268), 4 µg/mL (≈ 12.1 µM); against P. aeruginosa (P. aeruginosa KUB No. 5703, AR Bank # 270) it was 8 µg/mL (≈ 24.1 µM).
In the case of `C[C@@H](O)[C@H]1C(=O)N2C(C(=O)O)=C(SCCN=CN)C[C@H]12` [Imipenem, imipenem], the MIC in the test on Klebsiella pneumoniae (ATCCBAA1898, KUB3996 Klebsiella pneumoniae ATCC BAA-1898, KPC-2) is 32 µg/mL (≈ 107 µM); in the test on Klebsiella pneumoniae (ATCCBAA1899, KUB3997 Klebsiella pneumoniae ATCC BAA-1899, KPC-2) it was 8 µg/mL (≈ 26.7 µM); in the test on Klebsiella pneumoniae (ATCCBAA1900, KUB3998 Klebsiella pneumoniae ATCC BAA-1900, KPC-3), 32 µg/mL (≈ 107 µM); in the test on Klebsiella pneumoniae (ATCCBAA1904, KUB3999 Klebsiella pneumoniae ATCC BAA-1904, KPC-3), 4 µg/mL (≈ 13.4 µM); against Klebsiella pneumoniae (ATCCBAA2078, KUB4000 Klebsiella pneumoniae ATCC BAA-2078, KPC-3), 8 µg/mL (≈ 26.7 µM); in the test on Klebsiella pneumoniae (ATCCBAA2146, KUB4011 Klebsiella pneumoniae ATCC BAA-2146, NDM-1) it was over 32 µg/mL. Also, the MIC against Klebsiella pneumoniae (ATCCBAA2342, KUB4003 Klebsiella pneumoniae ATCC BAA-2342, KPC-3) turned out to be 8 µg/mL (≈ 26.7 µM); against Klebsiella pneumoniae (ATCCBAA2343, KUB4004 Klebsiella pneumoniae ATCC BAA-2343, KPC-3), 16 µg/mL (≈ 53.4 µM); in the test on Klebsiella pneumoniae (ATCCBAA2472, KUB4008 Klebsiella pneumoniae subsp. Pneumoniae ATCC BAA-2472, NDM-1), 32 µg/mL (≈ 107 µM); in the test with Klebsiella pneumoniae (ATCCBAA2473, KUB4009 Klebsiella pneumoniae ATCC BAA-2473, NDM-1) it was 32 µg/mL (≈ 107 µM); with Klebsiella pneumoniae (KUB3631 Klebsiella pneumoniae Clinical isolate, IMP-1) it was 1 µg/mL (≈ 3.34 µM); in the test on Klebsiella pneumoniae (KUB3633 Klebsiella pneumoniae Clinical isolate, IMP-6) it was 0.12 µg/mL (≈ 0.401 µM). For the same molecule, the MIC is 0.12 µg/mL (≈ 0.401 µM) against Klebsiella pneumoniae (KUB3634 Klebsiella pneumoniae Clinical isolate, IMP-6); over 32 µg/mL in the test on Klebsiella pneumoniae (KUB3635 Klebsiella pneumoniae Clinical isolate, IMP-1); 16 µg/mL (≈ 53.4 µM) with Enterobacter cloacae (ATCCBAA2341, KUB4002 Enterobacter cloacae ATCC BAA-2341, KPC-3); over 32 µg/mL against Enterobacter cloacae (ATCCBAA2468, KUB4006 Enterobacter cloacae ATCC BAA-2468, NDM-1); 32 µg/mL (≈ 107 µM) in the test on Enterobacter hormaechei; 1 µg/mL (≈ 3.34 µM) with CRE and CPE strains (strain KUB3148, carbapenemase gene KPC-3, read-out: MIC). The MIC in the test with CRE and CPE strains (strain KUB3149, carbapenemase gene NDM-1, read-out: MIC) came out at 4 µg/mL (≈ 13.4 µM); with CRE and CPE strains (strain KUB3150, carbapenemase gene OXA-48, read-out: MIC), 0.5 µg/mL (≈ 1.67 µM); in the test with CRE and CPE strains (strain KUB3151, carbapenemase gene IMP-1, read-out: MIC) it was 0.5 µg/mL (≈ 1.67 µM); in the test with CRE and CPE strains (strain KUB3152, carbapenemase gene KPC-2, read-out: MIC), 8 µg/mL (≈ 26.7 µM); with CRE and CPE strains (strain KUB3153, carbapenemase gene KPC-3, read-out: MIC) it was 16 µg/mL (≈ 53.4 µM); in the test on CRE and CPE strains (strain KUB3154, carbapenemase gene KPC-2, read-out: MIC) it was 1 µg/mL (≈ 3.34 µM). Besides, the MIC against CRE and CPE strains (strain KUB3163, carbapenemase gene IMP-1) was 2 µg/mL (≈ 6.68 µM); against CRE and CPE strains (strain KUB3606, carbapenemase gene KPC-38) it was over 32 µg/mL; with CRE and CPE strains (strain KUB3620, carbapenemase gene -), 32 µg/mL (≈ 107 µM); in the test with CRE and CPE strains (strain KUB3628, carbapenemase gene IMP-1) it was 32 µg/mL (≈ 107 µM); against CRE and CPE strains (strain KUB3629, carbapenemase gene IMP-1), 8 µg/mL (≈ 26.7 µM); with Providencia rettgeri it was 4 µg/mL (≈ 13.4 µM). Besides, the MIC was found to be 4 µg/mL (≈ 13.4 µM) against Escherichia coli (ATCCBAA2452, KUB4005 Escherichia coli ATCC BAA-2452, NDM-1) and 32 µg/mL (≈ 107 µM) in the test with Escherichia coli (ATCCBAA2471, KUB4007 Escherichia coli ATCC BAA-2471, NDM-6). For the same molecule, the MIC50 in the test with 53 CRE and CPE strains (read-out: MIC50) worked out at 4 µg/mL (≈ 13.4 µM). Also, in the test on 53 CRE and CPE strains (read-out: MIC80), the MIC80 amounted to 32 µg/mL (≈ 107 µM). Also, the MIC90 in the test with 53 CRE and CPE strains (read-out: MIC90) is 32 µg/mL (≈ 107 µM).
